Patent US11376259B2, “Targeted treatment of mature T-cell lymphoma” (Eli Lilly and Company, priority 2016, dated 2022)

Legend:
AITL = test: Clinical evaluation in patients with relapsed or refractory peripheral T-cell lymphoma (AITL patients); type: in vivo, human; settings: cycle 1, oral capsules T.I.W., preliminary data
Source text: (§1) A study of 4,4,4-Trifluoro-N-[(1S)-2-[[(7S)-5-(2-hydroxyethyl)-6-oxo-7H-pyrido[2,3-d][3]benzazepin-7-yl]amino]-1-methyl-2-oxo-ethyl]butanamide hydrate in patients with advanced or metastatic cancer.
This study is a multicenter, nonrandomized, open-label, dose-escalation study followed by cohort expansion of oral dosed 4,4,4-trifluoro-N-[(1S)-2-[[(7S)-5-(2-hydroxyethyl)-6-oxo-7H-pyrido[2,3-d][3]benzazepin-7-yl]amino]-1-methyl-2-oxo-ethyl]butanamide hydrate in outpatients with advanced or metastatic cancer.
Cohort expansion of oral 4,4,4-trifluoro-N-[(1S)-2-[[(7S)-5-(2-hydroxyethyl)-6-oxo-7H-pyrido[2,3-d][3]benzazepin-7-yl]amino]-1-methyl-2-oxo-ethyl]butanamide hydrate in outpatients with advanced or metastatic cancer. Patients will be entered based on screened molecular alterations related to the Notch pathway. Patients initially dosed with 75 mg/dose administered T.I.W. are dose-reduced to 50 mg/dose administered T.I.W. […]
(§2) Efficacy: Efficacy will be assessed using Response Evaluation Criteria in Solid Tumors (RECIST) v1.1 or using the Cheson et al., J. Clin. Oncol., 2007, 25(5): 579-586, response criteria for lymphoma. Each patient will be assessed by 1 or more of the following radiologic tests for tumor measurement: X-ray computerized tomography (CT) scan; magnetic resonance imaging (MRI); chest X-ray; positron emission tomography (PET) scan; dynamic contrast enhanced-magnetic resonance imaging (DCE-MRI); PET/CT imaging Standardized Uptake Values (SUVMAX); Dynamic Contrast-Enhanced Ultrasonography (DCE-US).
Each patient's full extent of disease will also be assessed with: applicable tumor measurement by RECIST 1.1 (Eisenhauer et al., Eur J Cancer. 2009, 45(2): 228-247); Cheson et al., J. Clin. Oncol., 2007, 25(5): 579-586; and Choi et al., J Clin Oncol. […] To confirm objective responses, all lesions should be radiologically assessed, and the same radiologic method used for the initial response determination should be repeated at least 4 weeks following the initial observation of an objective response, using the sample method that was used at baseline. […]

PTCL-NOS = test: Clinical evaluation in patients with relapsed or refractory peripheral T-cell lymphoma (PTCL-NOS patient); type: in vivo, human; settings: Patient 3, PTCL-NOS, cycle 1, oral capsules T.I.W., preliminary data
Source text: as §1
This study is a multicenter, nonrandomized, open-label, dose-escalation study followed by cohort expansion of oral dosed 4,4,4-trifluoro-N-[(1S)-2-[[(7S)-5-(2-hydroxyethyl)-6-oxo-7H-pyrido[2,3-d][3]benzazepin-7-yl]amino]-1-methyl-2-oxo-ethyl]butanamide hydrate in outpatients with advanced or metastatic cancer. […]
as §2
Each patient's full extent of disease will also be assessed with: applicable tumor measurement by RECIST 1.1 (Eisenhauer et al., Eur J Cancer. 2009, 45(2): 228-247); Cheson et al., J. Clin. Oncol., 2007, 25(5): 579-586; and Choi et al., J Clin Oncol. […]

[1] = Atropisomer equilibrium in solution by 1H NMR and LC-MS; type: physicochemical; settings: ambient temperature, after 24 hours
Protocol: In aqueous solutions, 8-9% of atropisomer 2 (minor atropisomer) is detected by ^1H NMR and LC-MS in equilibrium with atropisomer 1 (major atropisomer) at ambient temperature after 24 hours. In organic solvents, at ambient temperature after 24 hours, approximately 1-2% of atropisomer 2 is detected by ^1H NMR and LC-MS in equilibrium with atropisomer 1. Although detectable by ^1H NMR and LC-MS analysis, atropisomer 2 is not isolable.

Structure (SMILES) | CT Scan assessment: Tumor decrease (AITL; Patient 1, AITL) | PET Scan (response) (AITL; Patient 1, AITL) | CT Scan assessment: Tumor decrease (AITL; Patient 2, AITL) | CT Scan assessment (PTCL-NOS) | Other assessments: Abnormal T cells (PTCL-NOS) | atropisomer 2 (minor atropisomer) detected in equilibrium with atropisomer 1 ([1]; aqueous solutions) | atropisomer 2 (minor atropisomer) detected in equilibrium with atropisomer 1 ([1]; organic solvents)
C[C@H](NC(=O)CCC(F)(F)F)C(=O)N[C@@H]1C(=O)N(CCO)c2ncccc2-c2ccccc21 [4,4,4-trifluoro-N-[(1S)-2-[[(7S)-5-(2-hydroxyethyl)-6-oxo-7H-pyrido[2,3-d][3]benzazepin-7-yl]amino]-1-methyl-2-oxo-ethyl]butanamide hydrate] | of 80% | Partial | of 20% | Stable | Decrease of |  | 
C[C@H](NC(=O)CCC(F)(F)F)C(=O)N[C@@H]1C(=O)N(CCO)c2ncccc2-c2ccccc21 [Compound 1, 4,4,4-trifluoro-N-[(1S)-2-[[(7S)-5-(2-hydroxyethyl)-6-oxo-7H-pyrido[2,3-d][3]benzazepin-7-yl]amino]-1-methyl-2-oxo-ethyl]butanamide] |  |  |  |  |  | 8-9% | 1-2%
